Experimental data as given in article PMC10895678 (Journal of Medicinal Chemistry, 2024).
In brackets after ≈: the same amount, converted by molar mass. Several values for one entry are separate records, joined by “and”; a condition that tells them apart may be missing. Identical values can stand only once. Like-named read-outs stand apart in the source and are kept apart here.

Columns and labels:
[1] = Mouse PK, combined (cassette) dosing of BGAz-001–005; type: in vivo, KM mice; parameters: AUMC(0-t) / VRT(0-t) / λz: unit not given here; details: for MRT last: read-out: MRT(0-t); for MRT inf: read-out: MRT(0-∞); for Vd/F: read-out: Vz/F
Text: Methods for combined single dosing (BGAz001–005) and dosing of single compounds multiple times (BGAz004 and BGAz005) are described in detail in the Supporting Information (PK Data).
Report on PK Results of Combined Dosing with BGAz-001–005
1 Materials and instrument combined dosing
An MS2 Turnover type oscillator was purchased from IKA Work’s Guangzhou (China), and a 5415R ChromatographicanalyseswereconductedusinganAgilent1290InfinityIIhighperformanceliquidchromatography andAgilentTechnologies6470TripleQuadLC/MS.Propranolol(≥90%inpurity,internalstandard,IS)waspurchased fromtheSigmaChemicalCo.(China).Formicacid(HPLCgrade)andmethanol(HPLCgrade)werepurchasedfrom DIKMACo.(China).Allchemicalsandsolventswereanalyticalgrade.WaterwaspurifiedusingaMillipore(AK,USA) laboratoryultra-purewatersystem(0.2μmfilter).
KMmice,weighing25–35g(BeijingVitalRiverLaboratoryAnimalTechnologyCo.,Ltd.,China)wereutilisedforthe studies.The protocols were approved by the Animal Care and Use Committee, GIBH. Animals were maintained on standard animal chow and waterad libitum, in a climate-controlled room (23±1 °C 30–70% relative humidity, a minimumof tenexchangesof roomairperhouranda12hlight/darkcycle)foroneweekpriortoexperiments.
3 Pharmacokinetic studies
Compounds BGAz-001 ，BGAz-002 ，BGAz-003 ，BGAz-004 and BGAz-005 were dissolved mixed in a solution containing DMSO (2%),ethanol (4%), Cremophor EL (4%) and ddH2O (90%); Pharmacokinetic propertiesof KM (male) were determined following IV, PO and IP administration. Animals were randomly distributed into three experimentalgroups(n=4).ThePOgroupwasgivenmixedsolutionwith5mg/kgbygastricgavage.TheIVgroup was dosed with mixed solution 1mg/kg byinjection into the tail vein. The IP group was dosed with mixed solution 1mg/kg by intraperitoneal injection. After single administration, whole blood samples (100 μL) were obtained from the orbital venousplexus atthe followingtime pointsafter dosing:5, 15,30 minand 1,3, 5,8, 24hour (PO and IP groups) and at the following time points after dosing 2, 10, 30min and 1, 3, 5, 8,24 hour (IV group). Wholeblood samples were collected in heparinised tubes. The plasma fraction was immediately separated by centrifugation. The micewerehumanelyeuthanasiabycarbondioxide24hoursafterexperimentwithoutpain.
4 Plasma sample and brain sample analysis
4.1 Standard curve sample preparation
ThecompoundsweredissolvedinDMSO(2mg/mL)anddilutedwithtoseriesconcentration(methanol:H 2O,1:1,10 μL) and blank plasma (50 μL) were added to 1.5 mL tubes and vortexed for 3 min, then acetonitrile-containing internalstandard(150μL)wasaddedandvortexedforafurther5min,andsubsequentlyspuninacentrifugeat13000 […]
4.2 Plasma and preparation
Plasmasampleswerepreparedusingaproteinprecipitationmethod.Solution(10μL,methanolH 2O,1:1)andplasma samples(50μL)wereaddedto1.5mLtubesandvortexfor3min,thenacetonitrile-containinginternalstandard(150 μL)wasaddedandvortexfor5min,andsubsequentlyspuninacentrifugeat13000× gfor40minat4°C.
Aftercentrifugation,supernatant(100μL)wastransferto96wellplatesandanalysedbyLC-MS/MSusinganAgilent 1290InfinityIIHPLCandanAgilentTechnologies6470TripleQuadLC/MS.

[2] = system: C. glutamicum; assay: MIC, resazurin assay, C. glutamicum wild type; type: cell-based, Corynebacterium glutamicum
[3] = Kinetic solubility (turbidimetry); type: physicochemical; details: PBS pH 7.4, 1% DMSO, 25 °C
[4] = system: M. bovis BCG; assay: microbe, parasite or virus in culture; type: cell-based; details: Mycobacterium tuberculosis variant bovis BCG, read-out: BCG MBC
[5] = system: M. smegmatis; assay: MIC determination, resazurin end point assay, M. smegmatis; type: cell-based, Mycobacterium smegmatis; details: Mycolicibacterium smegmatis
[6] = IP 1 mg/kg, cassette, mean of animals
[7] = IV 1 mg/kg, cassette, mean of animals
[8] = PO 5 mg/kg, cassette, mean of animals
[9] = male, KM, mouse, plasma, IP 1 mg/kg, cassette
[10] = male, KM, mouse, plasma, IP 1 mg/kg, cassette, mean of animals
[11] = male, KM, mouse, plasma, IV 1 mg/kg, cassette
[12] = male, KM, mouse, plasma, IV 1 mg/kg, cassette, mean of animals
[13] = male, KM, mouse, plasma, PO 5 mg/kg, cassette
[14] = male, KM, mouse, plasma, PO 5 mg/kg, cassette, mean of animals

FC(F)(F)Oc1ccc(C2CC(CN3CCCC3)N2Cc2ccccc2OC(F)(F)F)cc1 (centres unmarked) [BGAz-002]
AUC(0-t) [1, 6]: 390.877 µg | AUC(0-∞) [1, 6]: 629.982 µg | AUMC(0-t) [1, 6]: 3917.162 **μg | AUMC(0-∞) [1, 6]: 17064.651 **μg | CLz/F [1, 6]: 1.79 L/kg | C_last [1, 6]: 8.556 µg | R_AUC(t/∞) [1, 6]: 67.725% | VRT(0-t) [1, 6]: 72.869 ^2 | VRT(0-∞) [1, 6]: 649.236 ^2 | λz [1, 6]: 0.051 1/ | AUC(0-∞) ([1]; IP 1 mg/kg, cassette, summary table): 629.982 µg·h | AUC(0-t) [1, 7]: 395.775 µg | AUC(0-∞) [1, 7]: 440.39 µg | AUMC(0-t) [1, 7]: 2604.325 **μg | AUMC(0-∞) [1, 7]: 4336.305 **μg | CLz/F [1, 7]: 2.306 L/kg | C_last [1, 7]: 3.185 µg | R_AUC(t/∞) [1, 7]: 89.5% | VRT(0-t) [1, 7]: 48.868 ^2 | VRT(0-∞) [1, 7]: 164.25 ^2 | Vz/F [1, 7]: 28.224 L/kg | λz [1, 7]: 0.099 1/ | AUC(0-∞) ([1]; IV 1 mg/kg, cassette, summary table): 440.39 µg·h | BA ([1]; PO 5 mg/kg vs IV 1 mg/kg, cassette): 57.59% | AUC(0-t) [1, 8]: 642.368 µg | AUC(0-∞) [1, 8]: 1268.031 µg | AUMC(0-t) [1, 8]: 6099.109 **μg | AUMC(0-∞) [1, 8]: 48726.538 **μg | CLz/F [1, 8]: 11.484 L/kg | C_last [1, 8]: 17.369 µg | R_AUC(t/∞) [1, 8]: 64% | VRT(0-t) [1, 8]: 48.138 ^2 | VRT(0-∞) [1, 8]: 1193.792 ^2 | λz [1, 8]: 0.025 1/ | AUC(0-∞) ([1]; PO 5 mg/kg, cassette, summary table): 1268.03 µg·h | Cmax ([1]; male, KM, mouse, plasma, ip, 1 mg/kg, IP 1 mg/kg, cassette, mean of animals, read-out: Cmax): 40 ng/mL | Tmax ([1]; male, KM, mouse, plasma, ip, 1 mg/kg, IP 1 mg/kg, cassette, mean of animals, read-out: Tmax): 0.167 h | Cmax ([1]; male, KM, mouse, plasma, ip, 1 mg/kg, IP 1 mg/kg, cassette, summary table, read-out: Cmax): 40 ng/mL | half-life ([1]; male, KM, mouse, plasma, ip, 1 mg/kg, IP 1 mg/kg, cassette, summary table, read-out: T1/2 (converted)): 16.1 h | Tmax ([1]; male, KM, mouse, plasma, ip, 1 mg/kg, IP 1 mg/kg, cassette, summary table, read-out: Tmax): 0.167 h | Cmax ([1]; male, KM, mouse, plasma, iv, 1 mg/kg, IV 1 mg/kg, cassette, mean of animals, read-out: Cmax): 189 ng/mL | Tmax ([1]; male, KM, mouse, plasma, iv, 1 mg/kg, IV 1 mg/kg, cassette, mean of animals, read-out: Tmax): 0.033 h | Cmax ([1]; male, KM, mouse, plasma, iv, 1 mg/kg, IV 1 mg/kg, cassette, summary table, read-out: Cmax): 189 ng/mL | half-life ([1]; male, KM, mouse, plasma, iv, 1 mg/kg, IV 1 mg/kg, cassette, summary table, read-out: T1/2 (converted)): 8.35 h | Tmax ([1]; male, KM, mouse, plasma, iv, 1 mg/kg, IV 1 mg/kg, cassette, summary table, read-out: Tmax): 0.033 h | AUC(0-inf) ([1]; male, KM, mouse, plasma, po, 5 mg/kg, 5 mg/kg PO, cassette dosing, read-out: AUC0-inf): 1270 ng·h/mL | Cmax ([1]; male, KM, mouse, plasma, po, 5 mg/kg, 5 mg/kg PO, cassette dosing, read-out: Cmax (Mouse, P.O.)): 53.9 ng/mL | half-life ([1]; male, KM, mouse, plasma, po, 5 mg/kg, 5 mg/kg PO, cassette dosing, read-out: T1/2 (Mouse, P.O.) (converted)): 24.9 h | Tmax ([1]; male, KM, mouse, plasma, po, 5 mg/kg, 5 mg/kg PO, cassette dosing, read-out: Tmax (Mouse, P.O.)): 1.87 h | Cmax ([1]; male, KM, mouse, plasma, po, 5 mg/kg, PO 5 mg/kg, cassette, mean of animals, read-out: Cmax): 53.9 ng/mL | Tmax ([1]; male, KM, mouse, plasma, po, 5 mg/kg, PO 5 mg/kg, cassette, mean of animals, read-out: Tmax): 1.88 h | Cmax ([1]; male, KM, mouse, plasma, po, 5 mg/kg, PO 5 mg/kg, cassette, summary table, read-out: Cmax): 53.9 ng/mL | half-life ([1]; male, KM, mouse, plasma, po, 5 mg/kg, PO 5 mg/kg, cassette, summary table, read-out: T1/2 (converted)): 24.9 h | Tmax ([1]; male, KM, mouse, plasma, po, 5 mg/kg, PO 5 mg/kg, cassette, summary table, read-out: Tmax): 1.88 h | concentration at 0.083 h [1, 9]: 37.4 ng/mL and 80 nM | concentration at 0.25 h [1, 9]: 80 nM and 38.8 ng/mL | concentration at 0.5 h [1, 9]: 70 nM and 32.6 ng/mL | concentration at 1 h [1, 9]: 50 nM and 25.8 ng/mL | concentration at 3 h [1, 9]: 50 nM and 24 ng/mL | concentration at 5 h [1, 9]: 40 nM and 17 ng/mL | concentration at 8 h [1, 9]: 30 nM and 15 ng/mL | concentration at 24 h [1, 9]: 30 nM and 12.4 ng/mL | MRT last [1, 10]: 10.1 h | MRT inf [1, 10]: 23.7 h | Vd/F [1, 10]: 36.8 L/kg | concentration at 0.033 h ([1]; male, KM, mouse, plasma, IV 1 mg/kg, cassette, 0.033 h): 189 ng/mL and 400 nM | concentration at 0.167 h ([1]; male, KM, mouse, plasma, IV 1 mg/kg, cassette, 0.167 h): 210 nM and 98.9 ng/mL | concentration at 0.5 h [1, 11]: 130 nM and 62.5 ng/mL | concentration at 1 h [1, 11]: 100 nM and 45.6 ng/mL | concentration at 3 h [1, 11]: 60 nM and 28.3 ng/mL | concentration at 5 h [1, 11]: 40 nM and 18.3 ng/mL | concentration at 8 h [1, 11]: 30 nM and 12.5 ng/mL | concentration at 24 h [1, 11]: 10 nM and 6.16 ng/mL | C0 [1, 12]: 222 ng/mL | MRT last [1, 12]: 6.46 h | MRT inf [1, 12]: 9.9 h | concentration at 0.083 h [1, 13]: 16.4 ng/mL and 30 nM | concentration at 0.25 h [1, 13]: 50 nM and 25.1 ng/mL | concentration at 0.5 h [1, 13]: 80 nM and 37.7 ng/mL | concentration at 1 h [1, 13]: 100 nM and 49.3 ng/mL | concentration at 3 h [1, 13]: 100 nM and 49.4 ng/mL | concentration at 5 h [1, 13]: 80 nM and 40.1 ng/mL | concentration at 8 h [1, 13]: 80 nM and 36.7 ng/mL | concentration at 24 h [1, 13]: 50 nM and 22.9 ng/mL | MRT last [1, 14]: 7.92 h | MRT inf [1, 14]: 27.5 h | Vd/F [1, 14]: 104 L/kg | C. glutamicum MIC ([2]; modified Gompertz function): 50 µM | MIC50 C. glutamicum ([2]; supplementary MIC data file): 43 µM (≈ 20.4 µg/mL) | MIC99 C. glutamicum ([2]; supplementary MIC data file): 49 µM (≈ 23.2 µg/mL) | solubility kinetic at 5 min [3]: 57 µM (≈ 27 µg/mL) | MBC [4]: 12 to 25 µM (≈ 5.69 to 11.9 µg/mL) | MIC50 ([5]; read-out: MIC50 smegmatis): 49 µM (≈ 23.2 µg/mL) | MIC99 ([5]; read-out: MIC99 smegmatis): 62 µM (≈ 29.4 µg/mL) | MIC99 ([5]; resazurin end point assay, modified Gompertz function, three biological replicates, read-out: M. smeg. MIC99): 32 µM (≈ 15.2 µg/mL)
